In brackets after ≈: the same amount, converted by molar mass. Several values for one entry are separate records, joined by “and”; a condition that tells them apart may be missing. Equal entries are not always repeated.

The test system of assay [1] is S. aureus ATCC 700699 (Sa 99). Kind of assay: MIC, broth microdilution, Sa 99. Format: cell-based. The settings on record: replicates from different days separated by comma; for MIC: Staphylococcus aureus, ATCC700699, Table 1, HT series, read-out: Minimum inhibitory concentration (MIC) Sa 99; for Minimum inhibitory concentration (MIC) Sa 99: Table 1, HT series. The method in brief:
(§1)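 Broth microdilution per CLSI guidelines; compounds two-fold serially diluted from a top concentration of 64 μg/mL. MIC recorded in duplicate across three independent experiments run on different days.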
(Broth dilution looks for growth in wells or tubes with falling amounts of substance.)

Assay [2] deals with S. aureus ATCC 33592 (Sa 92). Kind of assay: MIC, broth microdilution, Sa 92. Format: cell-based. The settings on record: Staphylococcus aureus, ATCC33592; Table 1, HT series; read-out: Minimum inhibitory concentration (MIC) Sa 92. The gist of the method: as §1
Assay [3] concerns S. aureus ATCC 33591 (Sa 91). Kind of assay: MIC, broth microdilution, Sa 91. Conditions: Staphylococcus aureus, ATCC33591; Table 1, HT series; read-out: Minimum inhibitory concentration (MIC) Sa 91. Format: cell-based. The method in brief:
as §1

Assay [4] has as its system S. aureus ATCC 25923 (Sa 23). Kind of assay: MIC, broth microdilution, Sa 23. Format: cell-based. The settings on record: replicates from different days separated by comma; for MIC: Staphylococcus aureus, ATCC25923, Table 1, HT series, read-out: Minimum inhibitory concentration (MIC) Sa 23; for Minimum inhibitory concentration (MIC) Sa 23: Table 1, HT series. The gist of the method:
as §1

Assay [5] has as its system S. aureus ATCC BAA-2312 (Sa 12). Kind of assay: MIC, broth microdilution, Sa 12. Format: cell-based. The settings on record: Staphylococcus aureus, ATCCBAA2312; Table 1, HT series; read-out: Minimum inhibitory concentration (MIC) Sa 12. The method in brief: as §1
For assay [6], the system named is E. faecalis ATCC 29212 (Efs 12). Kind of assay: MIC, broth microdilution, Efs 12. Format: cell-based. The settings on record: replicates from different days separated by comma; for Minimum inhibitory concentration (MIC) Efs 12: Table 1, HT series. The method in brief: as §1
Assay [7] relates to Sa UAMS-1 MRSA ATCC 49230 (Sa UAMS). Kind of assay: MIC, broth microdilution, Sa UAMS. Format: cell-based, S. aureus. Conditions: Staphylococcus aureus; Table 1, HT series; read-out: Minimum inhibitory concentration (MIC) Sa UAMS. The method in brief: as §1
Assay [8] concerns S. aureus subsp. aureus Rosenbach ATCC 25904 (SA Newman). Kind of assay: MIC, broth microdilution, SA Newman. Format: cell-based. The settings on record: Staphylococcus aureus; Table 1, HT series; read-out: Minimum inhibitory concentration (MIC) Sa Newman. The method in brief:
as §1

For assay [9], the system named is S. aureus LAC MRSA (Sa LAC). Kind of assay: MIC, broth microdilution, Sa LAC. The settings on record: Staphylococcus aureus, Table 1, HT series, read-out: Minimum inhibitory concentration (MIC) Sa LAC. Format: cell-based. How it is done: (§2) The broth microdilution method was utilized to determine MIC values of novel thiazole derivatives against different clinically important Gram-positive bacteria according to the guidelines outlined by the Clinical and Laboratory Standards Institute (CLSI) as reported in our recent papers.^1-5 The starting concentration of compounds for MIC determination was 64 μg/mL serially diluted down the wells and the MIC values were recorded in duplicates in three independent experiments on different days.

For assay [10], the system named is S. aureus subsp. aureus Rosenbach BAA-1717 (Sa USA 300). Kind of assay: MIC, broth microdilution, Sa USA 300. Format: cell-based. Conditions: Staphylococcus aureus; Table 1, HT series; read-out: Minimum inhibitory concentration (MIC) SA USA 300. The method in brief: as §1
Assay [11] deals with S. epidermidis ATCC 700296 (Se). Kind of assay: MIC, broth microdilution, Se. Format: cell-based. The settings on record: Staphylococcus epidermidis, ATCC700296; Table 1, HT series; read-out: Minimum inhibitory concentration (MIC) Se. The gist of the method:
as §1

The subject of assay [12] is E. faecalis ATCC 51299 (Efs 99). Kind of assay: MIC, broth microdilution, Efs 99. Format: cell-based. The settings on record: Enterococcus faecalis, ATCC51299; Table 1, HT series; read-out: Minimum inhibitory concentration (MIC) Efs 99. The method in brief:
as §1

The subject of assay [13] is E. faecium ATCC 700221 (Efm 21). Kind of assay: MIC, broth microdilution, Efm 21. Format: cell-based. The settings on record: Enterococcus faecium, ATCC700221, Table 1, HT series; read-out: Minimum inhibitory concentration (MIC) Efm 21. The gist of the method: as §1
Assay [14] deals with B. subtilis ATCC 6633 (Bs). Kind of assay: MIC, broth microdilution, Bs. Conditions: Bacillus subtilis, ATCC6633; Table 1, HT series; read-out: Minimum inhibitory concentration (MIC) Bs. Format: cell-based. How it is done: as §2

`Oc1ccc(-c2nc(-c3ccc(Br)cc3)cs2)cc1O` [Compound 5, 4-(4-(4-bromophenyl)thiazol-2-yl)benzene-1,2-diol]: the MIC was determined as 2 µg/mL (≈ 5.74 µM) in assay [1]; 8 µg/mL (≈ 23 µM) in assay [2]; 4 µg/mL (≈ 11.5 µM) in [3]; 2 µg/mL (≈ 5.74 µM) in [4]; 8 µg/mL (≈ 23 µM) in assay [5]; 8 µg/mL (≈ 23 µM) in [7]. Further, the MIC in [8] turned out to be 4 µg/mL (≈ 11.5 µM); in [9], 4 µg/mL (≈ 11.5 µM); in assay [10], 8 µg/mL (≈ 23 µM); in [11] it was 8 µg/mL (≈ 23 µM); in assay [12], 16 µg/mL (≈ 45.9 µM); in assay [13], 16 µg/mL (≈ 45.9 µM). For the same compound, the MIC in assay [14] is 16 µg/mL (≈ 45.9 µM). Also, in assay [1], the “Minimum inhibitory concentration (MIC) Sa 99” value is listed as 2, 2, 2 μg/mL. For the same compound, in [4], the “Minimum inhibitory concentration (MIC) Sa 23” value is reported as 2, 2, 2 μg/mL. Also, in assay [6], the “Minimum inhibitory concentration (MIC) Efs 12” value was 16 μg/mL (2×) and 2 μg/mL.

With `Oc1ccc(-c2nc(-c3cc(C(F)(F)F)cc(C(F)(F)F)c3)cs2)cc1O` [Compound 10, 4-(4-(3,5-bis(trifluoromethyl)phenyl)thiazol-2-yl)benzene-1,2-diol], the MIC in assay [1], in assay [2], in assay [3], in assay [4], in assay [5] and in [7] was 2 µg/mL (≈ 4.93 µM) in each case. Further, the MIC in assay [8] was found to be 2 µg/mL (≈ 4.93 µM); in assay [9] it was 2 µg/mL (≈ 4.93 µM); in [10] it was 4 µg/mL (≈ 9.87 µM); in [11], 8 µg/mL (≈ 19.7 µM); in assay [12] it was 8 µg/mL (≈ 19.7 µM); in assay [13], 8 µg/mL (≈ 19.7 µM). Also, in assay [14], the MIC was 8 µg/mL (≈ 19.7 µM). Moreover, the “Minimum inhibitory concentration (MIC) Sa 99” value in assay [1] is listed as 2, 2, 2 μg/mL. Also, in assay [4], the “Minimum inhibitory concentration (MIC) Sa 23” value was 1 µg/mL and 2 µg/mL. Also, the “Minimum inhibitory concentration (MIC) Efs 12” value in assay [6] was 16 µg/mL and 2 µg/mL and 8 µg/mL.

As for `Oc1ccc(-c2nc(-c3ccc(C(F)(F)F)cc3)cs2)cc1O` [Compound 9, 4-(4-(4-(trifluoromethyl)phenyl)thiazol-2-yl)benzene-1,2-diol], the MIC in [1] was found to be 2 µg/mL (≈ 5.93 µM); in [2], 8 µg/mL (≈ 23.7 µM); in assay [3] it was 4 µg/mL (≈ 11.9 µM); in [4], 2 µg/mL (≈ 5.93 µM); in assay [5], 4 µg/mL (≈ 11.9 µM); in [7], 4 µg/mL (≈ 11.9 µM). The MIC in assay [8] came out at 4 µg/mL (≈ 11.9 µM); in assay [9], 8 µg/mL (≈ 23.7 µM); in assay [10], 4 µg/mL (≈ 11.9 µM); in assay [11] it was 8 µg/mL (≈ 23.7 µM); in assay [12], 16 µg/mL (≈ 47.4 µM); in assay [13], 16 µg/mL (≈ 47.4 µM). For the same compound, the MIC in assay [14] came to 8 µg/mL (≈ 23.7 µM). For the same compound, the “Minimum inhibitory concentration (MIC) Sa 99” value in [1] is reported as 2, 2, 2 μg/mL. Besides, in assay [4], the “Minimum inhibitory concentration (MIC) Sa 23” value is 2, 2, 2 μg/mL. Moreover, in assay [6], the “Minimum inhibitory concentration (MIC) Efs 12” value was 16 µg/mL and 2 µg/mL and 8 µg/mL.

For the compound `Oc1ccc(-c2nc(-c3cc(C(F)(F)F)cc(C(F)(F)F)c3)cs2)cc1` [Compound 36, 4-(4-(3,5-bis(trifluoromethyl)phenyl)thiazol-2-yl)phenol], the MIC in assay [1] came to 2 µg/mL (≈ 5.14 µM); in assay [2] it was 2 µg/mL (≈ 5.14 µM); in assay [3], 2 µg/mL (≈ 5.14 µM); in [4] it was 2 µg/mL (≈ 5.14 µM); in assay [5], 2 µg/mL (≈ 5.14 µM); in [6] (Enterococcus faecalis, ATCC29212, Table 1, HT series, read-out: Minimum inhibitory concentration (MIC) Efs 12), 2 µg/mL (≈ 5.14 µM). Besides, the MIC in [7], in assay [8], in [10], in [11], in assay [12] and in assay [13] was 2 µg/mL (≈ 5.14 µM) throughout. For the same compound, the MIC in [14] amounted to 2 µg/mL (≈ 5.14 µM).

The record behind these values is patent publication US20250270199A1, “THIAZOLE DERIVATIVES AND METHODS OF USING THE SAME” (Arkansas State University - Jonesboro, priority 2022, published 2025).
